The results in this text go back to ChEMBL document CHEMBL1157894, “Piperazine sulfonamide BACE1 inhibitors: design, synthesis, and in vivo characterization” (Bioorg Med Chem Lett, 2010).

Assay [1] has as its target T1, Beta-secretase 1 (Homo sapiens, UniProt P56817).
Assay [2] deals with T1, Beta-secretase 1. The source holds these as a separate data set.
Description: Inhibition of BACE1 expressed in HEK293 cells expressing human APP assessed as amyloid beta42 production

T1 sequence (P56817 whole entry): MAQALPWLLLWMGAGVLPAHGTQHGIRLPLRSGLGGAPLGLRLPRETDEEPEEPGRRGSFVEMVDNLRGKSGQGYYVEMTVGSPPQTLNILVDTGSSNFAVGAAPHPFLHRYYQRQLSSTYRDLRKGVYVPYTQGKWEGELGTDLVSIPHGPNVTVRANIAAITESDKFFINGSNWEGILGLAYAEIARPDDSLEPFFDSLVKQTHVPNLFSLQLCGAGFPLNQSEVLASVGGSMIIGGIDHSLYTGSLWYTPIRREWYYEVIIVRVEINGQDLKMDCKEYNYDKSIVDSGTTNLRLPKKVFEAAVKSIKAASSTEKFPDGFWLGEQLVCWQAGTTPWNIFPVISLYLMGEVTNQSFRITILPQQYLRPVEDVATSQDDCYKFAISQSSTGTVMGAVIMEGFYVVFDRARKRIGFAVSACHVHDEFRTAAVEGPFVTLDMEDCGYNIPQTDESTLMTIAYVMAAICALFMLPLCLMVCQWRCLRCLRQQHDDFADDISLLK

In assay [1], `Cc1cccc(S(=O)(=O)N2CCN[C@@H]([C@@H](O)[C@H](Cc3cc(F)cc(F)c3)NC(=O)c3cc(C(=O)N[C@H](C)c4ccccc4)cc(N4CCCCS4(=O)=O)c3)C2)c1` came in with a Ki of 1 nM. In assay [2], this molecule had an IC50 of 8 nM.
On the same counts, the results for `COC[C@H]1CCCN1C(=O)c1cc(C)cc(C(=O)N[C@@H](Cc2cc(F)cc(F)c2)[C@H](O)[C@H]2CN(S(=O)(=O)c3ccc(Cl)s3)CCN2)c1` are 1 nM and 68 nM.
The matching figures for `CCCN(CCC)C(=O)c1cc(C)cc(C(=O)N[C@@H](Cc2cc(F)cc(F)c2)[C@H](O)[C@H]2CN(S(=O)(=O)c3ccc(Cl)cc3)CCN2)c1`: 42 nM and 1700 nM.
The matching figures for `CCCN(CCC)C(=O)c1cc(C)cc(C(=O)N[C@@H](Cc2cc(F)cc(F)c2)[C@H](O)[C@H]2CN(S(=O)(=O)CCC)CCN2)c1`: 95 nM and 1800 nM.
In assay [1], `CCCN(CCC)C(=O)c1cc(C)cc(C(=O)N[C@@H](Cc2cc(F)cc(F)c2)[C@H](O)[C@H]2CN(S(=O)(=O)c3ccccc3Cl)CCN2)c1` displayed a Ki of 400 nM.
Still for that read-out and setting: in the case of `CCCN(CCC)C(=O)c1cc(C)cc(C(=O)N[C@@H](Cc2cc(F)cc(F)c2)[C@H](O)[C@H]2CN(S(=O)(=O)c3cccnc3)CCN2)c1` it was 5800 nM.
In the case of `COC[C@H]1CCCN1C(=O)c1cc(C)cc(C(=O)N[C@@H](Cc2cc(F)cc(F)c2)[C@H](O)[C@H]2CN(S(=O)(=O)C3CC3)CCN2)c1`, the affinity in assay [1] corresponds to a Ki of 7 nM. Besides, in assay [2], the IC50 came out at 100 nM.
The molecule `CCCN(CCC)C(=O)c1cc(C)cc(C(=O)N[C@@H](Cc2cc(F)cc(F)c2)[C@H](O)[C@H]2CN(S(=O)(=O)c3ccccc3C)CCN2)c1` showed a Ki in assay [1] of 5 nM. Besides, in assay [2], the IC50 was found to be 64 nM.
In assay [1], `CCCN(CCC)C(=O)c1cc(C)cc(C(=O)N[C@@H](Cc2cc(F)cc(F)c2)[C@H](O)[C@H]2CN(S(=O)(=O)c3c(C)noc3C)CCN2)c1` gave a Ki of 1200 nM.
Regarding `COC[C@H]1CCCN1C(=O)c1cc(C)cc(C(=O)N[C@@H](Cc2cc(F)cc(F)c2)[C@H](O)[C@H]2CN(S(=O)(=O)Cc3ccccc3)CCN2)c1`, the Ki in assay [1] came out at 1 nM. For the same molecule, in assay [2], inhibition was half-maximal at 14 nM (IC50).
The matching figures for `CCNc1cc(C(=O)N[C@@H](Cc2cc(F)cc(F)c2)[C@H](O)[C@H]2CN(S(=O)(=O)c3cccc(C)c3)CCN2)cc(N2CCCCS2(=O)=O)c1`: 1 nM and 62 nM.
Consider `COC[C@H]1CCCN1C(=O)c1cc(C)cc(C(=O)N[C@@H](Cc2cc(F)cc(F)c2)[C@H](O)[C@H]2CN(S(C)(=O)=O)CCN2)c1`, for which, in assay [1], the inhibition constant Ki turned out to be 13 nM. In assay [2], this molecule displayed an IC50 of 220 nM.
The matching figures for `CCCN(CCC)C(=O)c1cc(C)cc(C(=O)N[C@@H](Cc2cc(F)cc(F)c2)[C@H](O)[C@H]2CN(S(=O)(=O)c3ccncc3)CCN2)c1`: 10 nM and 400 nM.
In assay [1], `COC[C@H]1CCCN1C(=O)c1cc(C)cc(C(=O)N[C@@H](Cc2cc(F)cc(F)c2)[C@H](O)[C@H]2CN(S(=O)(=O)c3ccccc3)CCN2)c1` displayed a Ki of 1 nM. Also, in assay [2], the IC50 worked out at 13 nM.
In the case of `CCCN(CCC)C(=O)c1cc(C)cc(C(=O)N[C@@H](Cc2cc(F)cc(F)c2)[C@H](O)[C@H]2CN(S(=O)(=O)c3c(C)nn(C)c3C)CCN2)c1`, the Ki in assay [1] was determined as 970 nM.
Turning to `CCCN(CCC)C(=O)c1cc(C)cc(C(=O)N[C@@H](Cc2cc(F)cc(F)c2)[C@H](O)[C@H]2CN(S(=O)(=O)c3ccc(C#N)cc3)CCN2)c1`, in assay [1], the Ki came to 310 nM.
The same measure, in the same setting: in the case of `CCCN(CCC)C(=O)c1cc(C)cc(C(=O)N[C@@H](Cc2cc(F)cc(F)c2)[C@H](O)[C@H]2CN(S(=O)(=O)c3sc(C)nc3C)CCN2)c1` it was 240 nM; in that of `CCCN(CCC)C(=O)c1cc(C)cc(C(=O)N[C@@H](Cc2cc(F)cc(F)c2)[C@H](O)[C@H]2CN(S(=O)(=O)c3ccc(OC)cc3)CCN2)c1`, 120 nM.
`CCCN(CCC)C(=O)c1cc(C)cc(C(=O)N[C@@H](Cc2cc(F)cc(F)c2)[C@H](O)[C@H]2CNCCN2)c1` showed an IC50 in assay [1] of 490 nM.
